Assay results taken from ChEMBL document CHEMBL3046898, “Synthesis and characterization of flurbiprofen hydrazide derivatives as potential anti-HCV, anticancer and antimicrobial agents” (2013).
Active and inactive are the calls of the source. The rule behind the calls is not given here.

How the values were obtained:
[1] = system: Pseudomonas aeruginosa; experiment: Antibacterial activity against Pseudomonas aeruginosa at 6.25 to 200 ug/ml after 24 hrs by microwell dilution method; assay type: functional, organism-based
[2] = system: IGROV-1; experiment: Cytotoxicity against human IGROV1 assessed as cell growth at 10 uM after 48 hrs by SRB assay; assay type: functional; settings: IGROV-1, 48 h, read-out: Activity
[3] = system: SF-295; experiment: Cytotoxicity against human SF295 assessed as cell growth at 10 uM after 48 hrs by SRB assay; assay type: functional; settings: SF-295, 48 h, read-out: Activity
[4] = system: UO-31; experiment: Cytotoxicity against human UO31 assessed as cell growth at 10 uM after 48 hrs by SRB assay; assay type: functional; settings: UO-31, 48 h, read-out: Activity
[5] = system: UACC-62; experiment: Cytotoxicity against human UACC62 assessed as cell growth at 10 uM after 48 hrs by SRB assay; assay type: functional; settings: UACC-62, 48 h, read-out: Activity
[6] = system: Micrococcus luteus; experiment: Antibacterial activity against Micrococcus luteus at 6.25 to 200 ug/ml after 24 hrs by microwell dilution method; assay type: functional, organism-based
[7] = system: Nakaseomyces glabratus; experiment: Antifungal activity against Candida glabrata at 10 mg/ml after 48 hrs by disc diffusion method; assay type: functional, organism-based
[8] = system: M14; experiment: Cytotoxicity against human M14 assessed as cell growth at 10 uM after 48 hrs by SRB assay; assay type: functional; settings: M14, 48 h, read-out: Activity
[9] = system: OVCAR-5; experiment: Cytotoxicity against human OVCAR5 assessed as cell growth at 10 uM after 48 hrs by SRB assay; assay type: functional; settings: OVCAR-5, 48 h, read-out: Activity
[10] = system: SNB-75; experiment: Cytotoxicity against human SNB75 assessed as cell growth at 10 uM after 48 hrs by SRB assay; assay type: functional; settings: SNB-75, 48 h, read-out: Activity
[11] = system: 786-0; experiment: Cytotoxicity against human 786-0 assessed as cell growth at 10 uM after 48 hrs by SRB assay; assay type: functional; settings: 786-0, 48 h, read-out: Activity
[12] = system: HCC 2998; experiment: Cytotoxicity against human HCC2998 assessed as cell growth at 10 uM after 48 hrs by SRB assay; assay type: functional; settings: HCC 2998, 48 h, read-out: Activity
[13] = system: BT-549; experiment: Cytotoxicity against human BT549 assessed as cell growth at 10 uM after 48 hrs by SRB assay; assay type: functional; settings: BT-549, 48 h, read-out: Activity
[14] = system: Salmonella paratyphi; experiment: Antibacterial activity against Salmonella paratyphi at 6.25 to 200 ug/ml after 24 hrs by microwell dilution method; assay type: functional, organism-based; settings: Salmonella enterica subsp. enterica serovar Paratyphi A
[15] = system: Staphylococcus cohnii; experiment: Antibacterial activity against Staphylococcus cohnii at 6.25 to 200 ug/ml after 24 hrs by microwell dilution assay; assay type: functional, organism-based
[16] = system: SNB-19; experiment: Cytotoxicity against human SNB19 assessed as cell growth at 10 uM after 48 hrs by SRB assay; assay type: functional; settings: SNB-19, 48 h, read-out: Activity
[17] = system: Acinetobacter radioresistens; experiment: Antibacterial activity against Acinetobacter radioresistens at 10 mg/ml after 24 hrs by disc diffusion method; assay type: functional, organism-based
[18] = system: Escherichia coli; experiment: Antibacterial activity against Escherichia coli at 6.25 to 200 ug/ml after 24 hrs by microwell dilution method; assay type: functional, organism-based
[19] = system: MOLT-4; experiment: Cytotoxicity against human MOLT4 assessed as cell growth at 10 uM after 48 hrs by SRB assay; assay type: functional; settings: MOLT-4, 48 h, read-out: Activity
[20] = system: Candida tropicalis; experiment: Antifungal activity against Candida tropicalis at 10 mg/ml after 48 hrs by disc diffusion method; assay type: functional, organism-based
[21] = system: Acinetobacter radioresistens; experiment: Antibacterial activity against Acinetobacter radioresistens at 6.25 to 200 ug/ml after 24 hrs by microwell dilution method; assay type: functional, organism-based
[22] = system: Proteus vulgaris; experiment: Antibacterial activity against Proteus vulgaris at 10 mg/ml after 24 hrs by disc diffusion method; assay type: functional, organism-based
[23] = system: A549; experiment: Cytotoxicity against human A549 assessed as cell growth at 10 uM after 48 hrs by SRB assay; assay type: functional; settings: A549, 48 h, read-out: Activity
[24] = system: Schwanniomyces occidentalis; experiment: Antifungal activity against Schwanniomyces occidentalis at 10 mg/ml after 48 hrs by disc diffusion method; assay type: functional, organism-based
[25] = system: SR; experiment: Cytotoxicity against human SR assessed as cell growth at 10 uM after 48 hrs by SRB assay; assay type: functional; settings: read-out: Activity
[26] = system: EKVX; experiment: Cytotoxicity against human EKVX assessed as cell growth at 10 uM after 48 hrs by SRB assay; assay type: functional; settings: read-out: Activity
[27] = system: Micrococcus lylae; experiment: Antibacterial activity against Micrococcus lylae at 6.25 to 200 ug/ml after 24 hrs by microwell dilution method; assay type: functional, organism-based
[28] = system: NCI-H23; experiment: Cytotoxicity against human NCI-H23 assessed as cell growth at 10 uM after 48 hrs by SRB assay; assay type: functional; settings: NCI-H23, 48 h, read-out: Activity
[29] = system: SK-OV-3; experiment: Cytotoxicity against human SKOV3 assessed as cell growth at 10 uM after 48 hrs by SRB assay; assay type: functional; settings: SK-OV-3, 48 h, read-out: Activity
[30] = system: SW-620; experiment: Cytotoxicity against human SW620 assessed as cell growth at 10 uM after 48 hrs by SRB assay; assay type: functional; settings: SW-620, 48 h, read-out: Activity
[31] = system: MDA-MB-435; experiment: Cytotoxicity against human MDA-MB-435 assessed as cell growth at 10 uM after 48 hrs by SRB assay; assay type: functional; settings: MDA-MB-435, 48 h, read-out: Activity
[32] = system: NCI-H322M; experiment: Cytotoxicity against human NCI-H322M assessed as cell growth at 10 uM after 48 hrs by SRB assay; assay type: functional; settings: read-out: Activity
[33] = system: T47D; experiment: Cytotoxicity against human T47D assessed as cell growth at 10 uM after 48 hrs by SRB assay; assay type: functional; settings: read-out: Activity
[34] = system: Salmonella paratyphi; experiment: Antibacterial activity against Salmonella paratyphi at 10 mg/ml after 24 hrs by disc diffusion method; assay type: functional, organism-based; settings: Salmonella enterica subsp. enterica serovar Paratyphi A
[35] = system: SN12C; experiment: Cytotoxicity against human SN12C assessed as cell growth at 10 uM after 48 hrs by SRB assay; assay type: functional; settings: read-out: Activity
[36] = system: Escherichia coli; experiment: Antibacterial activity against Escherichia coli at 10 mg/ml after 24 hrs by disc diffusion method; assay type: functional, organism-based
[37] = system: DU-145; experiment: Cytotoxicity against human DU145 assessed as cell growth at 10 uM after 48 hrs by SRB assay; assay type: functional; settings: DU-145, 48 h, read-out: Activity
[38] = system: NCI-H226; experiment: Cytotoxicity against human NCI-H226 assessed as cell growth at 10 uM after 48 hrs by SRB assay; assay type: functional; settings: NCI-H226, 48 h, read-out: Activity
[39] = system: SF-268; experiment: Cytotoxicity against human SF268 assessed as cell growth at 10 uM after 48 hrs by SRB assay; assay type: functional; settings: SF-268, 48 h, read-out: Activity
[40] = system: Micrococcus luteus; experiment: Antibacterial activity against Micrococcus luteus at 10 mg/ml after 24 hrs by disc diffusion method; assay type: functional, organism-based
[41] = system: Photorhabdus luminescens; experiment: Antibacterial activity against Photorhabdus luminescens at 6.25 to 200 ug/ml after 24 hrs by microwell dilution method; assay type: functional, organism-based
[42] = system: HOP-62; experiment: Cytotoxicity against human HOP62 assessed as cell growth at 10 uM after 48 hrs by SRB assay; assay type: functional; settings: HOP-62, 48 h, read-out: Activity
[43] = system: Pseudomonas aeruginosa; experiment: Antibacterial activity against Pseudomonas aeruginosa at 10 mg/ml after 24 hrs by disc diffusion method; assay type: functional, organism-based

For `CC(C(=O)NN1C(=O)CSC1c1ccc(C(F)(F)F)cc1)c1ccc(-c2ccccc2)c(F)c1` (stereo not drawn), the Activity [1] was “inactive”, the growth at 10 µM [2] was 75.5% and the growth at 10 µM [3] was 58.4%. For the same compound, the growth at 10 µM [4] was 58.8%, the growth at 10 µM [5] was 50.9% and the Activity [6] was “inactive”. The Activity [7] was “inactive”, the growth at 10 µM [8] was 54.5% and the growth at 10 µM [9] was 105%. It also gave a growth at 10 µM [10] of 43%, a growth at 10 µM [11] of 47.2% and a growth at 10 µM [12] of 155%. For the same compound, the growth at 10 µM [13] was 68%, the Activity [14] was “inactive” and the Activity [15] was “inactive”. For the same compound, the growth at 10 µM [16] was 54.7%, the Activity [17] was “inactive” and the Activity [18] was “inactive”. The growth at 10 µM [19] was 43.5%, the Activity [20] was “inactive” and the Activity [21] was “inactive”. For the same compound, the Activity [22] was “inactive”, the growth at 10 µM [23] was 68.6% and the Activity [24] was “inactive”. For the same compound, the growth at 10 µM [25] was 20.8%, the growth at 10 µM [26] was 57.9% and the Activity [27] was “inactive”. It also gave a growth at 10 µM [28] of 90.4%, a growth at 10 µM [29] of 94.7% and a growth at 10 µM [30] of 83.9%. The growth at 10 µM [31] was 66.7%, the growth at 10 µM [32] was 76.9% and the growth at 10 µM [33] was 33.4%. The Activity [34] was “inactive”, the growth at 10 µM [35] was 72.3% and the Activity [36] was “inactive”. The growth at 10 µM [37] was 81.5%, the growth at 10 µM [38] was 86% and the growth at 10 µM [39] was 62.1%. The Activity [40] was “inactive”, the Activity [41] was “inactive” and the growth at 10 µM [42] was 82.1%. The Activity [43] was “inactive”.
